# Data from ChEMBL document CHEMBL1148886, “Synthesis and antibacterial activity of 3-keto-6-O-carbamoyl-11,12-cyclic thiocarbamate erythromycin A derivatives” (2007).
# Tests used:
# Type in all cases: functional
# Staphylococcus aureus = test: Antibacterial activity against erythromycin-susceptible Staphylococcus aureus OC4172 by broth microdilution method
# Haemophilus influenzae = test: Antibacterial activity against Haemophilus influenzae OC4882 by broth microdilution method
# Streptococcus pneumoniae [1] = test: Antibacterial activity against erythromycin-susceptible Streptococcus pneumoniae OC9132 by broth microdilution method
# Streptococcus pneumoniae [2] = test: Antibacterial activity against erythromycin-resistant Streptococcus pneumoniae OC4051 containing erm(B) by broth microdilution method
# Streptococcus pneumoniae [3] = test: Antibacterial activity against erythromycin-resistant Streptococcus pneumoniae OC4438 containing mef(A) by broth microdilution method
SMILES,MIC (Staphylococcus aureus) [µg/mL],MIC (Haemophilus influenzae) [µg/mL],MIC (Streptococcus pneumoniae [1]) [µg/mL],MIC (Streptococcus pneumoniae [2]) [µg/mL],MIC (Streptococcus pneumoniae [3]) [µg/mL]
CC[C@H]1OC(=O)[C@H](C)C(=O)[C@H](C)[C@@H](O[C@@H]2O[C@H](C)C[C@H](N(C)C)[C@H]2O)[C@](C)(OC)C[C@@H](C)C(=O)[C@H](C)[C@H]2N(CCCCn3cnc(-c4cccnc4)c3)C(=O)O[C@]12C [TELITHROMYCIN],0.25,2,0.03,0.06,0.25
CC[C@H]1OC(=O)[C@H](C)[C@@H](O[C@H]2C[C@@](C)(OC)[C@@H](O)[C@H](C)O2)[C@H](C)[C@@H](O[C@@H]2O[C@H](C)C[C@H](N(C)C)[C@H]2O)[C@](C)(O)C[C@@H](C)C(=O)[C@H](C)[C@@H](O)[C@]1(C)O [ERYTHROMYCIN],0.5,8,0.06,> 16,4
CC[C@H]1OC(=O)[C@H](C)C(=O)[C@H](C)[C@@H](O[C@@H]2O[C@H](C)C[C@H](N(C)C)[C@H]2O)[C@](C)(OC(N)=O)C[C@@H](C)C(=O)[C@H](C)[C@@H]2NC(=S)O[C@]12C,4,8,0.25,–,–
